Assay results published in ChEMBL document CHEMBL1201862, “PubChem BioAssay data set” (2004).
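Following 48 hours of exposure in 96-well plates, responses at five concentrations were used to interpolate endpoints linearly. GI50 = concentration required for 50% inhibition of growth.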 The source made the active and inactive calls. Cut-off read from the data, not from the text of the source: active = GI50 up to about 1.1 µM and inactive = higher.

What was measured:
Test in all cases: DTP human tumour cell line panel, 48 h
CCRF-CEM = test system: CCRF-CEM
LOX IMVI = test system: LOX IMVI
OVCAR-3 = test system: OVCAR-3
NCI/ADR-RES = test system: NCI/ADR-RES
EKVX = test system: EKVX
M14 = test system: M14
NCI-H522 = test system: NCI-H522
DU-145 = test system: DU-145
HCT-116 = test system: HCT-116
SK-OV-3 = test system: SK-OV-3
MDA-MB-231 = test system: MDA-MB-231
UACC-257 = test system: UACC-257
Malme-3M = test system: Malme-3M
SF-295 = test system: SF-295
Hs-578T = test system: Hs-578T
HOP-92 = test system: HOP-92
SNB-19 = test system: SNB-19
SK-MEL-2 = test system: SK-MEL-2
SR = test system: SR

Measured: GI50

O=[N+]([O-])c1ccc(/N=N/c2c(O)ccc3cc(S(=O)(=O)O)ccc23)cc1
inactive: CCRF-CEM > 100 µM | LOX IMVI > 100 µM | OVCAR-3 > 100 µM | NCI/ADR-RES > 100 µM | EKVX > 100 µM | M14 > 100 µM | NCI-H522 > 100 µM | DU-145 > 100 µM | HCT-116 > 100 µM | SK-OV-3 > 100 µM | MDA-MB-231 > 100 µM | UACC-257 > 100 µM | Malme-3M > 100 µM | SF-295 > 100 µM | Hs-578T > 100 µM | HOP-92 > 100 µM | SNB-19 > 100 µM | SK-MEL-2 > 100 µM

COc1cc(S(=O)(=O)Nc2ccc(-c3csc(/N=C\C=C\c4ccccc4)n3)cc2)ccc1Cl
inactive: CCRF-CEM 17.5 µM | LOX IMVI 29.6 µM | OVCAR-3 > 100 µM | NCI/ADR-RES 59 µM | EKVX 36.9 µM | M14 29.9 µM | NCI-H522 24.5 µM | DU-145 45.5 µM | HCT-116 46.8 µM | SK-OV-3 > 100 µM | UACC-257 7.76 µM | Malme-3M 37.4 µM | SF-295 74.5 µM | Hs-578T 87.3 µM | HOP-92 22.8 µM | SNB-19 84.3 µM | SK-MEL-2 26 µM | SR 32.5 µM

CCOC(=O)c1c(SC)nc(-c2ccc(Cl)cc2)sc1=N.[O-][Cl+3]([O-])([O-])O
inactive: CCRF-CEM 39.9 µM | LOX IMVI 36.4 µM | OVCAR-3 33.2 µM | NCI/ADR-RES 23.7 µM | EKVX 22 µM | M14 45.4 µM | DU-145 40.9 µM | HCT-116 23.1 µM | SK-OV-3 37.2 µM | MDA-MB-231 41.7 µM | UACC-257 34.6 µM | Malme-3M 20.5 µM | SF-295 28.2 µM | Hs-578T 27.9 µM | HOP-92 80.2 µM | SNB-19 94.4 µM | SK-MEL-2 20.2 µM

COc1ccc2c(c1)C(=O)OCCC2
inactive: CCRF-CEM > 100 µM | OVCAR-3 > 100 µM | NCI/ADR-RES > 100 µM | EKVX > 100 µM | M14 > 100 µM | NCI-H522 > 100 µM | DU-145 > 100 µM | HCT-116 > 100 µM | SK-OV-3 > 100 µM | MDA-MB-231 > 100 µM | UACC-257 > 100 µM | SF-295 > 100 µM | Hs-578T > 100 µM | HOP-92 > 100 µM | SNB-19 > 100 µM | SK-MEL-2 > 100 µM

COP(=O)(OC)C12CCOCCN1c1ccccc1C2=O (configuration not stated)
inactive: CCRF-CEM > 100 µM | OVCAR-3 > 100 µM | NCI/ADR-RES > 100 µM | EKVX > 100 µM | M14 > 100 µM | NCI-H522 > 100 µM | DU-145 > 100 µM | HCT-116 > 100 µM | SK-OV-3 > 100 µM | MDA-MB-231 > 100 µM | UACC-257 > 100 µM | Malme-3M > 100 µM | SF-295 > 100 µM | Hs-578T > 100 µM | HOP-92 > 100 µM | SNB-19 > 100 µM | SK-MEL-2 > 100 µM

O=C1C(=C/C=C2/SC(c3ccccc3)(c3ccccc3)c3ccccc32)C(=O)c2ccccc21
inactive: LOX IMVI > 100 µM | OVCAR-3 > 100 µM | NCI/ADR-RES > 100 µM | EKVX > 100 µM | M14 > 100 µM | NCI-H522 > 100 µM | DU-145 > 100 µM | HCT-116 > 100 µM | SK-OV-3 > 100 µM | MDA-MB-231 > 100 µM | UACC-257 > 100 µM | Malme-3M > 100 µM | SF-295 > 100 µM | Hs-578T > 100 µM | HOP-92 > 100 µM | SNB-19 > 100 µM

COC(=O)C(=O)C(C(=O)C(=O)Nc1ccc(Cl)c(Cl)c1)c1nc2ccc(C(=O)c3ccccc3)cc2nc1O (configuration not stated)
inactive: CCRF-CEM 46.6 µM | LOX IMVI 59.3 µM | OVCAR-3 86.7 µM | NCI/ADR-RES 33.6 µM | EKVX 44.9 µM | M14 67.3 µM | NCI-H522 27.7 µM | HCT-116 61.4 µM | SK-OV-3 97.3 µM | MDA-MB-231 51.3 µM | UACC-257 > 100 µM | Malme-3M 73.8 µM | SF-295 49.4 µM | Hs-578T 22.1 µM | HOP-92 > 100 µM | SNB-19 45.6 µM | SK-MEL-2 97.9 µM

CC(C)Cn1cnnc1NS(=O)(=O)c1cc(C(=O)NN)c(Cl)cc1S
inactive: CCRF-CEM > 10 µM | LOX IMVI > 10 µM | OVCAR-3 > 10 µM | NCI/ADR-RES > 10 µM | EKVX > 10 µM | M14 > 10 µM | NCI-H522 > 10 µM | DU-145 > 10 µM | HCT-116 > 10 µM | SK-OV-3 > 10 µM | MDA-MB-231 > 10 µM | UACC-257 > 10 µM | Malme-3M > 10 µM | SF-295 > 10 µM | Hs-578T > 10 µM | HOP-92 > 10 µM | SNB-19 > 10 µM | SK-MEL-2 > 10 µM

Cc1nn(C(=O)Cc2ccccc2)c2c1C(c1ccc([N+](=O)[O-])cc1)SC(=N)N2 (configuration not stated)
inactive: CCRF-CEM > 100 µM | LOX IMVI > 100 µM | EKVX > 100 µM | M14 > 100 µM | NCI-H522 > 100 µM | DU-145 > 100 µM | HCT-116 > 100 µM | SK-OV-3 > 100 µM | MDA-MB-231 > 100 µM | UACC-257 > 100 µM | Malme-3M > 100 µM | SF-295 > 100 µM | Hs-578T > 100 µM | SR > 100 µM

c1ccc(/N=C2/SC(c3ccccc3)(c3ccccc3)c3ccccc32)cc1
inactive: CCRF-CEM > 100 µM | LOX IMVI 71.6 µM | OVCAR-3 > 100 µM | NCI/ADR-RES > 100 µM | EKVX > 100 µM | M14 > 100 µM | NCI-H522 > 100 µM | DU-145 > 100 µM | HCT-116 64.3 µM | SK-OV-3 > 100 µM | MDA-MB-231 > 100 µM | UACC-257 > 100 µM | Malme-3M > 100 µM | SF-295 > 100 µM | Hs-578T > 100 µM | HOP-92 > 100 µM | SNB-19 > 100 µM | SK-MEL-2 > 100 µM

CCOc1cc(NC(C)=O)ccc1C(=O)NNS(=O)(=O)c1ccc(Cl)cc1Cl
inactive: CCRF-CEM > 50 µM | LOX IMVI 45.5 µM | OVCAR-3 > 50 µM | NCI/ADR-RES > 50 µM | EKVX > 50 µM | M14 > 50 µM | NCI-H522 > 50 µM | DU-145 > 50 µM | HCT-116 > 50 µM | SK-OV-3 > 50 µM | UACC-257 > 50 µM | Malme-3M > 50 µM | SF-295 > 50 µM | Hs-578T > 50 µM | HOP-92 > 50 µM | SNB-19 > 50 µM | SK-MEL-2 > 50 µM | SR 13.9 µM
